From US9340577B2, “HLA binding motifs and peptides and their uses” (priority 1992, dated 2016) come the findings set out here.

What all share (test): biochemical
For assay [1], the target named is DR1 (DRB1*0101) (Homo sapiens, UniProt P01903+P01911, A100R/D57E/F55L/F60I/F76Y/I96L/L162R/M171V/P40L/Q125E/R42F/V115G/Y59C). The class given is binding.
Assay [2] concerns the target DR4w4 (DRB1*0401) (Homo sapiens, UniProt P01903+P01911, A100K/A169T/F76Y/I96L/K127E/L162R/M171V/N62H/P40V/Q125Y/R42H/S133A/S149N/S66Y/V115G/V209L/W38E). The class given is binding.
Assay [3] addresses DRB1*0301 (Homo sapiens, UniProt P01903+P01911, A100K/A102G/A103R/A169T/F55Y/I96L/K41T/L162R/M171V/P40S/Q125H/Q178H/Q39Y/R42S/S66N/T106N/T262R/W38E/Y61H). It is filed as binding.
The target in assay [4] is DRB1*0405 (Homo sapiens, UniProt P01903+P01911, A100R/A169T/D86S/F76Y/I96L/K127E/L162R/M171V/N62H/P40V/Q125Y/R42H/S133A/S149N/S66Y/V115G/V209L/W38E). It is filed as binding.
Assay [5] addresses DRB1*0802 (Homo sapiens, UniProt P01903+P01911, A100R/A103L/A169T/F76Y/H45Y/I96F/K41T/L162R/M171V/P40S/Q125H/Q178H/Q39Y/Q99D/R218S/R42G/S66Y/V115G/W38E). The class given is binding.
The target in assay [6] is DRB1*0901 (Homo sapiens, UniProt P01903+P01911, A100R/A103E/D57H/D86V/F55Y/F60I/F76Y/I96F/K127E/L162R/M171V/P40D/Q125H/Q99R/R33Q/R42F/S133A/S66N/T210M/V115G/W38K/Y107V/Y59G/Y89S). The class given is binding.
The target in assay [7] is DRB1*1201 (Homo sapiens, UniProt P01903+P01911, A100R/A169T/D57E/D86V/F55L/H45Y/K41T/L162R/M171V/P40S/Q125H/Q178H/Q39Y/Q99D/R42G/S66L/T262R/V114A/V67L/W38E/Y59H/Y61H/Y89S). The class given is binding.
The target in assay [8] is DRB1*1302 (Homo sapiens, UniProt P01903+P01911, A100E/A169T/K41T/L162R/M171V/P40S/Q125H/Q178H/Q39Y/Q99D/R42S/S66N/T262R/V115G/W38E/Y61H). It is filed as binding.
The target of assay [9] is DRB1*1501 (Homo sapiens, UniProt P01903+P01911). It is filed as binding.
Assay [10] deals with DRB4*0101 (Homo sapiens, UniProt P01903+P13762, G164S). The class given is binding.
Assay [11] has as its target DRB1*1101 (Homo sapiens, UniProt P01903+P01911, A100R/A169T/A87E/I96F/K41T/L162R/M171V/P40S/Q125H/Q178H/Q39Y/Q99D/R42S/S66Y/T262R/V115G/W38E). The following applies: Binding affinity DRB1 *1101.
Assay [12] addresses DRB5*0101 (Homo sapiens, UniProt P01903+Q30154). The following applies: Binding affinity DRB5 *0101.
The target of assay [13] is DR7 (DRB1*0701) (Homo sapiens, UniProt P01903+P01911, A100R/A102G/A103Q/D57E/D86V/E43K/F76Y/K127E/L162R/M171V/P40G/Q125H/Q99D/R33Q/R42Y/R54Q/S133A/S66F/T210M/V115G/Y107V/Y59L/Y89S). The class given is binding.

No end group written: not given here.

Sequence of DRB1*1302 (P01903 26-254 limits assumed, other chains not shown): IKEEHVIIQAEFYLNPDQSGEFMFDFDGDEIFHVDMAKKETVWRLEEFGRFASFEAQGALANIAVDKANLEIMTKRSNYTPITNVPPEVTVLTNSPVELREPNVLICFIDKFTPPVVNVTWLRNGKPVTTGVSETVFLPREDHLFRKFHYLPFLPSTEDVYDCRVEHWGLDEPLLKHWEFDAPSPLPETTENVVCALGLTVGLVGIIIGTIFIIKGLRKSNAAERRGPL
Sequence of DRB1*0301 (P01903 26-254 limits assumed, other chains not shown): as above
Sequence of DRB1*1101 (P01903 26-254 limits assumed, other chains not shown): as above

Consider KVAMLDDATHTCWTY [Peptide 90.0105], for which the IC50 is 253 nM in [1]; 34 nM in assay [2]; 410 nM in [3]; 279 nM in assay [4]; 8180 nM in [5]; over 20000 nM in [6]. Besides, the IC50 in assay [7] is 9280 nM; in [8], over 20000 nM; in [9] it was 2230 nM; in assay [10] it was 21 nM; in assay [11], 2260 nM; in [12] it was over 20000 nM.

Take SNLLSIPETCMVIEP [Peptide 89.0067]: the IC50 in assay [1] was 347 nM; in [2] it was 320 nM; in assay [3], over 20000 nM; in assay [4] it was 18 nM; in assay [5], 16800 nM; in assay [6] it was 1310 nM. The IC50 in assay [7] is 3860 nM; in [8], 350 nM; in assay [9], 510 nM; in assay [10], 963 nM; in assay [11], 12800 nM; in [12], over 20000 nM.

For EDEIDTDLDGFIDDS [Peptide 90.0126], the IC50 in assay [1] is 320 nM; in [2], over 20000 nM; in assay [3] it was 128 nM; in assay [4], 1020 nM; in assay [7], 138 nM; in assay [8], 67 nM. Further, the IC50 in assay [9] was 270 nM; in assay [10], 823 nM; in [11], over 20000 nM.

FKYFKEDAAKYSKTQ [Peptide 90.0206]: the IC50 in [1] was found to be 63 nM; in [2], 19 nM; in [3], 451 nM; in assay [4], 6860 nM; in assay [5] it was 835 nM; in assay [6], 1700 nM. Besides, the IC50 was 399 nM in assay [7]; 1700 nM in [8]; 865 nM in assay [9]; over 20000 nM in assay [10]; 303 nM in assay [11].

For YKTLFVDVTSTYHWT [Peptide 90.0241], the IC50 in assay [1] came out at 4030 nM; in assay [2] it was 75 nM; in [13], 647 nM; in assay [3], 56 nM; in assay [4] it was 549 nM; in [5] it was 14100 nM. Also, the IC50 in assay [6] was 2230 nM; in assay [7], 3900 nM; in [8], 71 nM; in [10], over 20000 nM; in assay [11], 4200 nM; in assay [12] it was 5500 nM.

For DNDVMDDSEIAYKYA [Peptide 90.0069], the IC50 in assay [1] was over 20000 nM; in [2], 3680 nM; in assay [3], 53 nM; in assay [4], 10100 nM; in assay [5], over 20000 nM; in assay [6] it was over 20000 nM. Besides, the IC50 in assay [7] was 12700 nM; in assay [8], over 20000 nM; in assay [9] it was 8220 nM; in assay [10], over 20000 nM; in [11] it was over 20000 nM; in assay [12], over 20000 nM.

As for `CC[C@H](C)[C@H](NC(=O)[C@H](Cc1c[nH]c2ccccc12)NC(=O)[C@H](CCC(=O)O)NC(=O)[C@@H]1CCCN1)C(=O)N[C@@H](CCC(=O)O)C(=O)N[C@@H](CCCNC(=N)N)C(=O)N[C@@H](CCC(N)=O)C(=O)N[C@H](C(=O)N[C@H](C(=O)N[C@@H](CC(C)C)C(=O)N[C@@H](CCC(N)=O)C(=O)N[C@@H](Cc1c[nH]cn1)C(=O)N[C@@H](CO)C(=O)N[C@@H](Cc1ccccc1)C(=O)N[C@@H](CC(N)=O)C(=O)O)C(C)C)[C@@H](C)O` [Peptide 89.0049], the 50% inhibitory concentration (IC50) in assay [1] was 5240 nM; in assay [2] it was 18 nM; in assay [13], 2870 nM; in assay [3], 210 nM; in assay [4] it was 440 nM; in assay [5], 707 nM. Further, the IC50 was 4520 nM in assay [6]; 7980 nM in assay [7]; 938 nM in assay [8]; 2 nM in assay [10]; 401 nM in assay [11]; over 20000 nM in [12].

On to DNELTDDSDIAYYYA [Peptide 90.0085], for which the IC50 is over 20000 nM in assay [1]; over 20000 nM in assay [2]; over 20000 nM in [13]; 98 nM in assay [3]; over 20000 nM in assay [4]; over 20000 nM in [5]. In addition, the IC50 in assay [6], in assay [7], in [8], in assay [10], in assay [11] and in [12] was over 20000 nM throughout.

For DNDIVDDSEIAYKYA [Peptide 90.0037], the IC50 in assay [1] is over 20000 nM; in assay [2], 4620 nM; in assay [13], over 20000 nM; in [3], 28 nM; in assay [4], over 20000 nM; in [5] it was over 20000 nM. For the same compound, the IC50 in assay [6] is over 20000 nM; in assay [7] it was 5300 nM; in assay [8], over 20000 nM; in assay [10], over 20000 nM; in [11], over 20000 nM; in [12], over 20000 nM.

In the case of VTAIFGVNPTIAEGF [Peptide 89.0023], the IC50 in assay [1] was 1140 nM; in assay [2], 836 nM; in assay [3] it was 3420 nM; in assay [4], 100 nM; in [5], over 20000 nM; in [6], 2910 nM. For the same compound, the concentration for half-maximal inhibition (IC50) in assay [7] was 6580 nM; in assay [8] it was 193 nM; in [9], 5700 nM; in assay [10] it was 544 nM; in assay [11], over 20000 nM; in [12] it was over 20000 nM.

For the compound ENSIQADTEAARALF [Peptide 90.0078], the IC50 in assay [1] was 3900 nM; in assay [2], over 20000 nM; in [3] it was 620 nM; in assay [4], over 20000 nM; in [5], over 20000 nM; in [6] it was over 20000 nM. Also, the concentration for half-maximal inhibition (IC50) in [7] is 7440 nM; in assay [8], over 20000 nM; in assay [9], over 20000 nM; in [10], over 20000 nM; in [11] it was over 20000 nM; in assay [12], over 20000 nM.

As for `CC(C)C[C@H](NC(=O)[C@H](CCC(N)=O)NC(=O)[C@H](CCCCN)NC(=O)[C@@H](NC(=O)[C@H](CC(C)C)NC(=O)[C@H](CCC(N)=O)NC(=O)[C@@H](NC(=O)[C@H](C)NC(=O)[C@H](CO)NC(=O)[C@@H](NC(=O)[C@@H](NC(=O)[C@H](CC(=O)O)NC(=O)[C@@H](N)CC(=O)O)[C@@H](C)O)C(C)C)[C@@H](C)O)C(C)C)C(=O)N[C@@H](CCC(N)=O)C(=O)N[C@@H](Cc1c[nH]cn1)C(=O)O` [Peptide 89.0162], the IC50 in assay [2] came to 100 nM; in [3], 241 nM; in assay [4], 674 nM; in assay [6], 1970 nM; in assay [7] it was 275 nM; in [8] it was 73 nM. Also, the IC50 in assay [9] was 601 nM; in [10], 128 nM; in assay [11], 943 nM; in assay [12], 578 nM.

As to EIYIIEEDTCTMVTG [Peptide 90.0203], the IC50 in assay [1] was 1360 nM; in assay [2], 258 nM; in assay [3], 273 nM; in assay [4], 3090 nM; in [5] it was over 20000 nM; in [6], over 20000 nM. Further, the IC50 in [7] was over 20000 nM; in assay [8], 577 nM; in [9], 6500 nM; in [10], 1740 nM; in assay [12], over 20000 nM.
